For one test, the system named is MCF-7 cells. The test is described as follows: Breast Cancer Cell Viability Assays (MCF-7, CellTiter-Glo). It counts as cell-based. Particulars: 5 days' compound exposure; for IC50: Homo sapiens, MCF7, 120 h. An outline of the steps:
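Percent viability, background-subtracted against untreated wells, was taken from CellTiter-Glo luminescence after 5 days' exposure of MCF-7 cells. Compounds were tested at eleven semilog concentrations, final 0.3–0.000003 μM, in RPMI containing 10% FBS.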

In another test the target is T1, ER-α in MCF-7 cells (Homo sapiens, UniProt P03372).
T1 construct: endogenous in cells; host or cells: MCF-7
T1 sequence (P03372 1-595): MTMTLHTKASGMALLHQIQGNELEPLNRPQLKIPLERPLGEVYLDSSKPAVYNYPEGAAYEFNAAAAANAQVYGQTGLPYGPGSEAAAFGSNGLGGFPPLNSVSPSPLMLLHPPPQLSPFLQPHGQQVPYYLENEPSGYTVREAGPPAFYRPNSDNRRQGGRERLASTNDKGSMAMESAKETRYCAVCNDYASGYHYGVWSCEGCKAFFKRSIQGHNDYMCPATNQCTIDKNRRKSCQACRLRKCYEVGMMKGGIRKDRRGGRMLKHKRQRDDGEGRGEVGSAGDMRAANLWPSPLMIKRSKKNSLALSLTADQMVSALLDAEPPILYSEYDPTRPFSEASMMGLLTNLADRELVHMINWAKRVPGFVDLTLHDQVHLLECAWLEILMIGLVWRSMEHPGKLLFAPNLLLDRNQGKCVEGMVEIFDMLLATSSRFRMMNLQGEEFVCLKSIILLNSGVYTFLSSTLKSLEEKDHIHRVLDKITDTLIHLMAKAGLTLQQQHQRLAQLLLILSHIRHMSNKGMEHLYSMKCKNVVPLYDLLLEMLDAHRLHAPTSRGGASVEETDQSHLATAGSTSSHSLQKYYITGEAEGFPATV
The test is described as follows: Breast Cancer Cell ER-α In Cell Western Assay (SP1). It counts as cell-based. Particulars: 4 or 24 hr post compound addition; for Emax: MCF7, SP1 antibody, read-out: ER-α In Cell Western Assay (SP1) Max Response; for DC50: SP1 antibody, read-out: ER-α In Cell Western Assay (SP1) IC50. An outline of the steps:
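ER-α levels quantified by in-cell western: SP1 signal normalised to DRAQ5 DNA stain, relative to untreated cells (% ER). Compounds at 0.3–0.000003 μM final, 11-point semilog series, 4 or 24 h exposure of MCF-7 cells grown in charcoal-stripped serum.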

We go through 8 compounds from patent publication US9499538B2, “Estrogen receptor modulators and uses thereof” (Seragon Pharmaceuticals, Inc., priority 2012, dated 2016).

Where only a bound is given, the exact number is not on record here.

On to `O=C(O)/C=C/c1ccc(/C(=C(\c2ncccc2C(F)(F)F)C2CCC2)c2ccc3[nH]nc(F)c3c2)cn1` [Example 260, (E)-3-(5-((Z)-2-Cyclobutyl-1-(3-fluoro-1H-indazol-5-yl)-2-(3-(trifluoromethyl)pyridin-2-yl)vinyl)pyridin-2-yl)acrylic acid], for which, in the test with MCF-7 cells, the “MCF7 Viability Assay Max Response” value is “++ (++ = a single % value ≧ 40%)” and the IC50 is at most 100 nM. Besides, on ER-α in MCF-7 cells, the Emax was at least 40% and the DC50 was at most 100 nM.

Take `CC/C(=C(/c1ccc(/C=C/C(=O)O)cc1)c1ccc2[nH]nc(F)c2c1)c1ccccc1Cl` [Example 261, (E)-3-(4-((E)-2-(2-Chlorophenyl)-1-(3-fluoro-1H-indazol-5-yl)but-1-en-1-yl)phenyl)acrylic acid]: in the test with MCF-7 cells, the “MCF7 Viability Assay Max Response” value was “++ (++ = a single % value ≧ 40%)” and the IC50 is at most 100 nM. At ER-α in MCF-7 cells, the Emax was at least 40% and the DC50 is at most 100 nM.

Take `CC/C(=C(/c1ccc(/C=C/C(=O)O)cc1)c1ccc2[nH]nc(F)c2c1)c1ncccc1Cl` [Example 262, (E)-3-(4-((E)-2-(3-Chloropyridin-2-yl)-1-(3-fluoro-1H-indazol-5-yl)but-1-en-1-yl)phenyl)acrylic acid]: in the test with MCF-7 cells, the “MCF7 Viability Assay Max Response” value is on record as “++ (++ = a single % value ≧ 40%)” and the IC50 was at most 100 nM. In addition, at ER-α in MCF-7 cells, the Emax is at least 40% and the DC50 was at most 100 nM.

For the compound `CC/C(=C(/c1ccc(/C=C/C(=O)O)cc1)c1ccc2[nH]nc(F)c2c1)c1ncccc1C(F)(F)F` [Example 263, (E)-3-(4-((E)-1-(3-Fluoro-1H-indazol-5-yl)-2-(3-(trifluoromethyl)pyridin-2-yl)but-1-en-1-yl)phenyl)acrylic acid], in the test with MCF-7 cells, the “MCF7 Viability Assay Max Response” value was “++ (++ = a single % value ≧ 40%)” and the IC50 was at most 100 nM. For the same compound, at ER-α in MCF-7 cells, the Emax is at least 40% and the DC50 is at most 100 nM.

For the compound `CC/C(=C(/c1ccc(/C=C/C(=O)O)cc1)c1ccc2[nH]nc(F)c2c1)c1ncc(Cl)cc1Cl` [Example 264, (E)-3-(4-((E)-2-(3,5-Dichloropyridin-2-yl)-1-(3-fluoro-1H-indazol-5-yl)but-1-en-1-yl)phenyl)acrylic acid], in the test on MCF-7 cells, the “MCF7 Viability Assay Max Response” value is “++ (++ = a single % value ≧ 40%)” and the IC50 was at most 100 nM. For the same compound, at ER-α in MCF-7 cells, the Emax is at least 40% and the DC50 is at most 100 nM.

Take `O=C(O)/C=C/c1ccc(/C(=C(\c2ccccc2)C2CCC2)c2ccc3[nH]nc(F)c3c2)cc1F` [Example 265, (E)-3-(4-((Z)-2-Cyclobutyl-1-(3-fluoro-1H-indazol-5-yl)-2-phenylvinyl)-2-fluorophenyl)acrylic acid]: in the test with MCF-7 cells, the “MCF7 Viability Assay Max Response” value was “++ (++ = a single % value ≧ 40%)” and the IC50 was at most 100 nM. Moreover, on ER-α in MCF-7 cells, the Emax was at least 40% and the DC50 was at most 100 nM.

Take `C/C(=C\C(=O)O)c1ccc(/C(=C(\c2ccccc2)C2CCC2)c2ccc3[nH]nc(F)c3c2)cc1` [Example 266, (E)-3-(4-((E)-2-Cyclobutyl-1-(3-fluoro-1H-indazol-5-yl)-2-phenylvinyl)phenyl)but-2-enoic acid]: in the test on MCF-7 cells, the “MCF7 Viability Assay Max Response” value is reported as “++ (++ = a single % value ≧ 40%)” and the IC50 was at most 100 nM. At ER-α in MCF-7 cells, the Emax is at least 40% and the DC50 is at most 100 nM.

For `C/C(=C\c1ccc(/C(=C(\c2ccccc2)C2CCC2)c2ccc3[nH]nc(F)c3c2)cc1)C(=O)O` [Example 267, (E)-3-(4-((E)-2-Cyclobutyl-1-(3-fluoro-1H-indazol-5-yl)-2-phenylvinyl)phenyl)-2-methylacrylic acid], in the test on MCF-7 cells, the “MCF7 Viability Assay Max Response” value is “++ (++ = a single % value ≧ 40%)” and the IC50 is at most 100 nM. For the same compound, at ER-α in MCF-7 cells, the Emax is at least 40% and the DC50 is at most 100 nM.

One may read the IC50 as the concentration that inhibits the measured activity by half. Low readings indicate inhibition by little substance, high ones a need for much substance.
